Reference: publication PMC7582324, “Potential Anti-Acetylcholinesterase Activity of Cassia timorensis DC” (Molecules, 2020)
Converted amounts (≈) assume the structure as drawn. “Also recorded” adds a separate entry of the source. Like-named read-outs stand apart in the source and are kept apart here.

Legend:
[1] = molecular target: Acetylcholinesterase (AChE) from Electrophorus electricus (electrical eels) type VI-S (Electrophorus electricus, UniProt O42275); test: biochemical; assay type: biochemical; conditions: for inhibition at 100 µg/mL: read-out: AChE inhibition (%)
Protocol: Coloring agent 5-5′dithiobis [2-nitrobenzoicacid] (DTNB) was purchased from ACROS (Geel, Belgium). Silica gel (Kieselgel 60, 230–400 mesh atm) was purchased from Merck (Darmstadt, Germany). The solvents were of analytical grade and used as received.
The in vitro AChE inhibition assay was evaluated using a spectrophotometry method developed by Ellman with some modifications. […] Plant extracts were dissolved in dimethyl sulfoxide (DMSO) and tested at a final concentration of 0.2 mg/mL, while compounds were tested at 0.1 mg/mL. The final concentration of DMSO was fixed at 1% in the 96-well plate. In a 96-well plate, 178 µL of 50 mM phosphate buffer, 2 µL of […] compound and 20 mg/mL extract, and 10 µL of 0.5 U/mL AChE were added. The first incubation period was 15 min at 25 °C. Five microliters of 14 mM ATCI substrate and 10 mM of the color indicator, DTNB, were added equally into each well and the well was then incubated at 25 °C for 30 min to initiate the enzyme reaction. The absorbance was measured at 415 nm using Promega Glomax® Multi Plus Reader (Promega, Madison, WI, USA). […] The percentage of inhibition was calculated using formula (1):(1) Percentage Inhibition (%) = Absorbance of negative control − Absorbance of test sample/ Absorbance of negative control × 100
IC50 values of plant crude extract, fractions, and compounds were calculated from the graph of percentage of inhibition versus extract concentrations using Microsoft Excel. GraphPad Prism software was used to generate the graphs.

[2] = tested on: AChE; conditions: individual compounds; cited from earlier work
[3] = cited from earlier work
[4] = isolated compounds at 0.1 mg/mL

Chain of Acetylcholinesterase (AChE) from Electrophorus electricus (electrical eels) type VI-S (O42275 24-633): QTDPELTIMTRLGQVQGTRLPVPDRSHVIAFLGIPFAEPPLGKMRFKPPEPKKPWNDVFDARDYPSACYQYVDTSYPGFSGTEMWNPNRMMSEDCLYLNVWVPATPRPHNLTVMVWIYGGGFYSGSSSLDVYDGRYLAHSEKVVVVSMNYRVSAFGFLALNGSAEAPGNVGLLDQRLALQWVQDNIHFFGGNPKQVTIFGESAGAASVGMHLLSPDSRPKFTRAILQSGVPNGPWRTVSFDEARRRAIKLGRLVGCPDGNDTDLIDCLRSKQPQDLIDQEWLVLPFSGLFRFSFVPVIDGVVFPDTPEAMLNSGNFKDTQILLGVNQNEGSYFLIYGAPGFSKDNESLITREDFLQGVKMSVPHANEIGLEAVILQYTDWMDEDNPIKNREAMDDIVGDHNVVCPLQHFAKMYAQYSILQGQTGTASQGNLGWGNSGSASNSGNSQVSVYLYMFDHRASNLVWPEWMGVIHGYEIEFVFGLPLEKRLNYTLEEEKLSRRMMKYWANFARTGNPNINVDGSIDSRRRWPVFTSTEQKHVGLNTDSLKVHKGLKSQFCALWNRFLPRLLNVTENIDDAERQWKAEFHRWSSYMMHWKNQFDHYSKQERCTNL

Row | Molecule | inhibition at 100 µg/mL [1] [%] | BBB permeability [3] | further results
1 | COc1c(-c2ccc(O)c(O)c2)oc2cc(O)cc(O)c2c1=O [Compound 1, 3-methoxyquercetin] | – | – | AChE activity relative to quercetin [1]: approximately three times higher than quercetin; AChE inhibitory activity (in words) [1, 4]: moderate inhibition; IC50 ([1]; mean ± s.d. (n = 3), read-out: AChE Inhibition (IC50)): 83.7 ± 4.67 µM
2 | CCC=CCC=CCC=CCCCCCCCC(=O)O [Compound 3, 9,12,15-octadecatrienoic acid] | < 50 | – | AChE inhibitory activity (in words) [1]: weak inhibitory activity; also recorded: not active
3 | CC[C@H](CC[C@@H](C)[C@H]1CC[C@H]2[C@@H]3CC=C4C[C@@H](O)CC[C@]4(C)[C@H]3CC[C@]12C)C(C)C [Compound 4, β-sitosterol] | < 50 | – | IC50 against AChE [2]: 55 µg/mL (≈ 133 µM)
4 | CC[C@H](/C=C/[C@@H](C)[C@H]1CC[C@H]2[C@@H]3CC=C4C[C@@H](O)CC[C@]4(C)[C@H]3CC[C@]12C)C(C)C [Compound 5, stigmasterol] | < 50 | – | IC50 against AChE [2]: 63 µg/mL (≈ 153 µM)
5 | CCCCCCCCCCCCCCCCCCO [Compound 6, 1-octadecanol] | < 50 | – | AChE inhibitory activity (in words) [1, 4]: weak inhibitory activity; also recorded: not active
6 | COc1ccc(-c2cc(=O)c3c(O)c(OC)c(O)c(OC)c3o2)cc1 [nevadensin] | – | high BBB permeability | –
7 | COc1cc(-c2cc(=O)c3c(O)c(OC)c(O)c(OC)c3o2)ccc1O [sudachitin] | – | high BBB permeability | –
8 | aceronin | – | high BBB permeability | –
